We go through 18 molecules from ChEMBL document CHEMBL1143249, “N-alkyl-4-piperidinyl-2,3-diarylpyrrole derivatives with heterocyclic substitutions as potent and broad spectrum anticoccidial agents” (Bioorg Med Chem Lett, 2008).

In test [1] the test system is Eimeria acervulina. In words: Anticoccidial activity against Eimeria acervulina in chick assessed as reduction in oocyst at 100 ppm, po after 5 days. It is filed as functional. Set-up: scale not given: the % may be the effect or the level left.
Test [2] concerns Eimeria tenella. The test is described as follows: Anticoccidial activity against Eimeria tenella in chick assessed as reduction in oocyst at 100 ppm, po after 6 days. The format is functional. On the set-up: scale not given: the % may be the effect or the level left.
For test [3], the target named is cGMP-dependent protein kinase (Eimeria tenella, UniProt Q8MMZ8). In words: Inhibition of Eimeria tenella cGMP-dependent protein kinase.
cGMP-dependent protein kinase, sequence (Q8MMZ8 whole entry): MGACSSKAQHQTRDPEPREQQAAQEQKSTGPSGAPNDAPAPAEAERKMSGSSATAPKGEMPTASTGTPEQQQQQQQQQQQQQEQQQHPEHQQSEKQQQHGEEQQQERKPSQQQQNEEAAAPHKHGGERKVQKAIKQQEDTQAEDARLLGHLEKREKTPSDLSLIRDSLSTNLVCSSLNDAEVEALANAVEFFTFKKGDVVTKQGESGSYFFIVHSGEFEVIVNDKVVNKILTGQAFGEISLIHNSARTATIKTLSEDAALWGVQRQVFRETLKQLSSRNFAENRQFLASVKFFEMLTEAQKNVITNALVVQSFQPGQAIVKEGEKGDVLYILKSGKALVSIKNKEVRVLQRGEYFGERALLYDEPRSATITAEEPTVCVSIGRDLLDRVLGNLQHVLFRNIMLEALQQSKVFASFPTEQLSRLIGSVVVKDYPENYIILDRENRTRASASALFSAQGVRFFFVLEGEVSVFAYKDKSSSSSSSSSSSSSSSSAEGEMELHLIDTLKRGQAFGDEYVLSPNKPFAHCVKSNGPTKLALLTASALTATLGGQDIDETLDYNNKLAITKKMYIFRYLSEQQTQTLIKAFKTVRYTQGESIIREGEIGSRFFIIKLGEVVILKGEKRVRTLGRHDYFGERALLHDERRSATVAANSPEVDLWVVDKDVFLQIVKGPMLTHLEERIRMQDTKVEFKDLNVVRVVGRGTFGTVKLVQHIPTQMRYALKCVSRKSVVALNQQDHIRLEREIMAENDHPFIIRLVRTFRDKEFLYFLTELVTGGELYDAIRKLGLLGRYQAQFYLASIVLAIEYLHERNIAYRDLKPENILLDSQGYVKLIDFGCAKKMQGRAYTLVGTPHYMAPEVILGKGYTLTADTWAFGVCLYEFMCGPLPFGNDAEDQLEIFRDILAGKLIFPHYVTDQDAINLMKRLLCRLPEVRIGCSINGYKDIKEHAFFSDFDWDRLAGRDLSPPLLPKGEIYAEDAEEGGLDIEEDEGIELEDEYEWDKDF
Test [4] relates to Eimeria tenella. The test is described as follows: Anticoccidial activity against Eimeria tenella in chick assessed as reduction in oocyst at 50 ppm, po after 6 days. The format is functional, organism-based.
The test system of test [5] is Eimeria acervulina. The test is described as follows: Anticoccidial activity against Eimeria acervulina in chick assessed as reduction in oocyst at 50 ppm, po after 5 days. The format is functional, organism-based.

pIC50: −log10 of the molar value. The source made the active and inactive calls. The calls are words filed in the database; no cut-off is given here.

For orientation: pIC50 means the negative decadic logarithm of the IC50, by convention in mol/L. Turning to `CN1CC[C@H]1CN1CCC(c2cc(-c3ccncc3)c(-c3ccc(F)cc3)[nH]2)CC1`, the Activity with Eimeria acervulina [1] and in the test with Eimeria tenella [2] was 80% in each case. The molecule further gave a pIC50 in test [3] of 9.55.
Take `Fc1ccc(-c2[nH]c(C3CCN(CCN4CCC4)CC3)cc2-c2ccncc2)cc1`: the Activity in the test with Eimeria acervulina [1] and in the test on Eimeria tenella [2] was 80% throughout. Also, the negative logarithm of the IC50 (pIC50) in test [3] was 10.10.
Turning to `Fc1ccc(-c2[nH]c(C3CCN(CC4CNCCN4)CC3)cc2-c2ccncc2)cc1` (stereo unspecified), the Activity with Eimeria acervulina [1] is 50%; in the test with Eimeria tenella [2], 80%. The pIC50 in test [3] is 10.15.
The like results for `O=C(C1CNCCO1)N1CCC(c2cc(-c3ccncc3)c(-c3ccc(F)cc3)[nH]2)CC1` (stereo unspecified) were, in that order, 50%, 80% and 9.57.
The corresponding values for `CS(=O)(=O)N1CCN(S(C)(=O)=O)C(CN2CCC(c3cc(-c4ccncc4)c(-c4ccc(F)cc4)[nH]3)CC2)C1` (stereo unspecified) are “inactive”, “inactive” and 8.85.
The corresponding values for `CC(CN1CCC1)N1CCC(c2cc(-c3ccncc3)c(-c3ccc(F)cc3)[nH]2)CC1` (stereo unspecified) are 80%, 80% and 9.40.
Turning to `COC(=O)N1CCOC(C(=O)N2CCC(c3cc(-c4ccncc4)c(-c4ccc(F)cc4)[nH]3)CC2)C1` (stereo unspecified), the Activity with Eimeria acervulina [1] and in the test on Eimeria tenella [2] was 50% each time. In test [3], this molecule showed a pIC50 of 8.33.
`O[C@H]1CN[C@H](CN2CCC(c3cc(-c4ccncc4)c(-c4ccc(F)cc4)[nH]3)CC2)C1`: the Activity with Eimeria acervulina [1] is on record as 50%; with Eimeria tenella [2] it was 80%. The pIC50 in test [3] was 9.80.
The corresponding values for `O=C(CN1CCC(c2cc(-c3ccncc3)c(-c3ccc(F)cc3)[nH]2)CC1)N1CCC1` are 80%, 80% and 9.00.
In the case of `OC[C@@H]1CCN1CCN1CCC(c2cc(-c3ccncc3)c(-c3ccc(F)cc3)[nH]2)CC1`, the Activity with Eimeria acervulina [1] and in the test with Eimeria tenella [2] was 80% each time. Further, the pIC50 in test [3] was 8.77.
For the molecule `CN1C[C@H](O)C[C@H]1CN1CCC(c2cc(-c3ccncc3)c(-c3ccc(F)cc3)[nH]2)CC1`, the Activity came out at 50% with Eimeria acervulina [1] and 80% with Eimeria tenella [2]. In test [3], this molecule had a pIC50 of 9.47.
In the case of `CCN1C[C@H](O)C[C@H]1CN1CCC(c2cc(-c3ccncc3)c(-c3ccc(F)cc3)[nH]2)CC1`, the Activity was 50% in the test with Eimeria acervulina [1] and 80% with Eimeria tenella [2]. For the same molecule, in test [3], the pIC50 is 9.44.
In the case of `CN1CCOC(CN2CCC(c3cc(-c4ccncc4)c(-c4ccc(F)cc4)[nH]3)CC2)C1` (stereo unspecified), the Activity in the test on Eimeria acervulina [1] and in the test on Eimeria tenella [2] was 80% in each case. The outcome with Eimeria tenella [4] and with Eimeria acervulina [5] was Active. For the same molecule, the pIC50 in test [3] is 9.17.
Take `CC(=O)N1C[C@H](O)C[C@H]1CN1CCC(c2cc(-c3ccncc3)c(-c3ccc(F)cc3)[nH]2)CC1`: the Activity in the test on Eimeria acervulina [1] stood at 50%; in the test on Eimeria tenella [2], 80%. This molecule also gave a pIC50 in test [3] of 8.66.
The like results for `CN1CCN(C)C(CN2CCC(c3cc(-c4ccncc4)c(-c4ccc(F)cc4)[nH]3)CC2)C1` (stereo unspecified) were, in that order, 50%, 50% and 8.97.
The like results for `CC(=O)N1CCN(C(C)=O)C(CN2CCC(c3cc(-c4ccncc4)c(-c4ccc(F)cc4)[nH]3)CC2)C1` (stereo unspecified) were, in that order, “inactive”, “inactive” and 8.66.
The corresponding values for `Fc1ccc(-c2[nH]c(C3CCN(CC4CNCCO4)CC3)cc2-c2ccncc2)cc1` (stereo unspecified) are 50%, 80% and 9.77.
As for `COC(=O)N1CCOC(CN2CCC(c3cc(-c4ccncc4)c(-c4ccc(F)cc4)[nH]3)CC2)C1` (stereo unspecified), the Activity is recorded as 50% with Eimeria acervulina [1] and 80% with Eimeria tenella [2]. The molecule also had a pIC50 in test [3] of 8.99.
